# Measurements from the supplement of paper PMC13380429.
# How the values were obtained:
# Settings in all cases: 72 h
# Caco-2 [1] = assay: cell viability relative to DMSO; higher = less toxic
# Calu-3 [2] = assay: as above
# HepG2 [3] = assay: as above
# U2OS [4] = assay: as above
# Vero E6 [5] = assay: as above
# Caco-2 [6] = assay: relative viability EC50 (midpoint between 100% and the lowest measured viability); higher = less toxic
# Calu-3 [7] = assay: as above
# HepG2 [8] = assay: as above
# U2OS [9] = assay: as above
# Vero E6 [10] = assay: as above
# Caco-2 [11] = assay: drug sensitivity score (DSS) for viability; higher = more toxic; extreme values may be limits of the assay
# Calu-3 [12] = assay: as above
# HepG2 [13] = assay: as above
# U2OS [14] = assay: as above
# Vero E6 [15] = assay: as above
SMILES,cell viability (Caco-2 [1]; 1 nM) [%],cell viability (Caco-2 [1]; 10 nM) [%],cell viability (Caco-2 [1]; 100 nM) [%],cell viability (Caco-2 [1]; 1000 nM) [%],cell viability (Caco-2 [1]; 10000 nM) [%],cell viability (Calu-3 [2]; 1 nM) [%],cell viability (Calu-3 [2]; 10 nM) [%],cell viability (Calu-3 [2]; 100 nM) [%],cell viability (Calu-3 [2]; 1000 nM) [%],cell viability (Calu-3 [2]; 10000 nM) [%],cell viability (HepG2 [3]; 1 nM) [%],cell viability (HepG2 [3]; 10 nM) [%],cell viability (HepG2 [3]; 100 nM) [%],cell viability (HepG2 [3]; 1000 nM) [%],cell viability (HepG2 [3]; 10000 nM) [%],cell viability (U2OS [4]; 1 nM) [%],cell viability (U2OS [4]; 10 nM) [%],cell viability (U2OS [4]; 100 nM) [%],cell viability (U2OS [4]; 1000 nM) [%],cell viability (U2OS [4]; 10000 nM) [%],cell viability (Vero E6 [5]; 1 nM) [%],cell viability (Vero E6 [5]; 10 nM) [%],cell viability (Vero E6 [5]; 100 nM) [%],cell viability (Vero E6 [5]; 1000 nM) [%],cell viability (Vero E6 [5]; 10000 nM) [%],relative viability EC50 (Caco-2 [6]) [µM],relative viability EC50 (Calu-3 [7]) [µM],relative viability EC50 (HepG2 [8]) [µM],relative viability EC50 (U2OS [9]) [µM],relative viability EC50 (Vero E6 [10]) [µM],drug sensitivity score (Caco-2 [11]),drug sensitivity score (Calu-3 [12]),drug sensitivity score (HepG2 [13]),drug sensitivity score (U2OS [14]),drug sensitivity score (Vero E6 [15])
CCOC(=O)c1cnc2c(cnn2CC)c1NN=C(C)C [etazolate],100,96.7,102,99.6,92.9,102,101,96.2,94.3,90.9,94.4,93,96.6,106,88.4,101,94.7,97.1,96.6,97.7,96.9,93.5,96.5,98.9,85.1,> 10,> 10,> 10,> 10,> 10,0,0,0,0,0.3
CN1C(C(=O)Nc2ccccn2)=C(O)c2sccc2S1(=O)=O [tenoxicam],98,102,96.2,98.6,92.6,99.3,102,90.7,106,98.2,94.9,96,96.5,88.5,101,93.3,94.4,93.1,97,93.1,98.5,96.2,103,98.7,99.8,> 10,> 10,> 10,> 10,> 10,0,0,0,0,0
CC(COc1ccccc1)N(CCCl)Cc1ccccc1 (stereo not given) [phenoxybenzamine],86.6,92.7,102,95.9,86,96.5,109,106,101,95.8,101,106,88.7,89.4,96.5,96.3,102,93.4,114,93.6,102,98.3,101,97.9,94.3,> 10,> 10,> 10,> 10,> 10,0.5,0,0.6,0,0
CC1(C)[C@@H](O)CC[C@]2(C)[C@H]3C(=O)C=C4[C@@H]5C[C@@](C)(C(=O)O)CC[C@]5(C)CC[C@@]4(C)[C@]3(C)CC[C@@H]12 [enoxolone],96.6,101,97,87.2,96.3,110,106,98.6,105,99.1,75.2,90.9,87,95.9,96,99.4,93.2,95.4,99.6,98.6,93.1,99.8,95.2,103,92.5,> 10,> 10,> 10,> 10,> 10,0,0,0,0,0
Cc1cc2c(OCC(CNC(C)(C)C)OC(=O)c3ccccc3)cccc2[nH]1 (stereo not given) [bopindolol],93.7,102,95.4,102,91.7,101,102,108,103,92,94,100,101,96.8,95.8,92.7,101,93,110,90.4,101,91.6,95.9,98.5,98.1,> 10,> 10,> 10,> 10,> 10,0,0,0,0,0
CCCc1c2oc(C(=O)O)cc(=O)c2cc2c(=O)cc(C(=O)O)n(CC)c12 [nedocromil],98.3,99.8,97.9,105,100,102,99.4,103,107,98.4,113,86.5,91.5,90.6,100,102,106,99.4,104,97.1,121,100,115,95.7,109,> 10,> 10,> 10,> 10,> 10,0,0,0,0,0
